Source: US20250115598A1 (Anaxis Pharma Pty Ltd, priority 2021, published 2025)

How the values were obtained:
U937 cells = test: Counter screen: cell viability without the TSQ cocktail (off-target effect); set-up: species or system human; conditions: Homo sapiens, U-937, Table 26, read-out: Off-target effect (IC50 cell-based assay)
Experimental: (§1) • Cell Line ID: U937 human histiocytic leukemia cell line. • Cell Concentration (cells/well): Final cell density is 20000 cells per well. • Cell growth medium: HT-RPMI medium+7.4% Fetal Bovine Serum (FBS). Cells are cultured in Corning 150 cm^2 tissue culture flasks with vented caps at 37° C./5% CO2. • Incubation: Plates were incubated at 37° C./5% CO2 in a humidified incubator for 48 hours following addition of compounds and death stimuli (TSQ cocktail). • Compound concentration: 36 μM starting concentration, 1:3 dilution, 10 point • DMSO final concentration (% v/v): 0.3%. Compounds in TSQ Cocktail (T: TNF; S: Smac Mimetic; Q: Q-VD-OPh) and their Final Concentrations: • hTNF-Fc (100 ng/ml)—produced by standard procedures as shown in Bossen et al., J. Biol. Chem., 2006, 281(20), 13964-13971. • Compound A (500 nM)—Smac mimetic, Tetralogic and SYNthesis med chem • Q-VD-OPh (10 μM)—MP Biomedicals
(§2) The cellular assay was carried out according to the following steps: • 1. Each well was prepared by sequential addition of: • a. DMSO (control; columns 1-2 and 23-24) or compound in DMSO—addition was performed using acoustic transfer of nL volumes of stock compound to give final test concentrations of 36, 12, 4, 1.3, 0.44, 0.148, 0.049, 0.016, 0.005 and 0.002 μM. All wells were backfilled with DMSO to a final total volume in the well of 100 nL. • b. Following compound/DMSO addition in step (a), 40 μL of cell suspension (5×10^5 cells/mL) was added to provide a final cell concentration of 20,000 cells per well, and • c. Following cell addition in step (b), 10 μL of 5×TSQ cocktail (except to positive controls; columns 1 and 23) was added to each well. • 2. After 48 hours, plate was removed from the 37° C. incubator and equilibrated to room temperature for 45 minutes. • 3.15 μL of room temperature CellTitre-Glo2™ (Promega™) was added to each well. • 4. Shook plates for 2 minutes (˜600 rpm) and incubated at room temperature for 15 minutes to allow signal to stabilise. • 5. Read luminescence readout on a plate reader.
(§3) • Assay involving the TSQ cocktail (T: TNF; S: Smac mimetic; Q: Q-VD-OPh): TSQ treatment ensures that cells specifically undergo necroptotic cell death. TNF activates the TNF receptor, Smac mimetic directs the signal away from proinflammatory signaling and toward the RIPK1/RIPK3-mediated cell death pathways, and Q-VD-OPh ensures that the apoptotic response is blocked leaving only the programmed necrosis response. The compounds' activity (solution in DMSO) tested in this TSQ-induced assay was evaluated by determining the number of viable cells in culture by measuring the amount of ATP present as measured by CelltiterGlo. • Counter screen: In parallel, all compounds were tested for their ability to affect cell viability. The same U937 cells were treated with compound in DMSO without the TSQ cocktail. This counter screen enabled evaluation of off-target effects. In this case, cell viability was measured by CelltiterGlo.

[1] = system: U937 human histiocytic leukemia cell line; test: Cellular assay: inhibition of TSQ induced necroptosis, CellTitre-Glo viability; conditions: Homo sapiens, U-937; U937 cells, 48 hours, TSQ cocktail, Table 26; read-out: Inhibition of TSQ-induced necroptosis (IC50 cell-based assay)
Experimental: Cellular Assay: Screening Compounds for Inhibition of TSQ Induced Necroptosis, 384 Well Plate Format.
as §1, §2
Percent viability was calculated for each compound according to equation (2):
as §3

endogenous MLKL in U937 = endogenous MLKL in U937 (Homo sapiens (Human), UniProt Q8NB16); test: Degradation assay: endogenous MLKL in U937 (western blot); conditions: U937, 24 h incubation, read-out: Degradation of endogenous MLKL in U937 (DC50 cell-based assay)
Sequence of endogenous MLKL in U937 (Q8NB16 whole entry): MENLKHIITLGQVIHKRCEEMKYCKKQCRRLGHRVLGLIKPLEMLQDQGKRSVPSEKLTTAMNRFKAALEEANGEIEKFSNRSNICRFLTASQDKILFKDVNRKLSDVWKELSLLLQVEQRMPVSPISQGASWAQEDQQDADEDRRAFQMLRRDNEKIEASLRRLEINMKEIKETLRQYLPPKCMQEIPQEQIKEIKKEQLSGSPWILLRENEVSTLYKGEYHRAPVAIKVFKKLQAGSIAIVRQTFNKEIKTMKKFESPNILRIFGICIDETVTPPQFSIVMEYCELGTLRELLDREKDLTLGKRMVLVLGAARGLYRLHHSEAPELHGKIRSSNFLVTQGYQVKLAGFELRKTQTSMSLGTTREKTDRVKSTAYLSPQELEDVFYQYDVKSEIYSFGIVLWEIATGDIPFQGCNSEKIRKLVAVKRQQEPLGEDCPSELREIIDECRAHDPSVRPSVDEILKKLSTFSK
Summary of the method: (§4)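 MDF (seeded the day before) or U937 cells were treated 24 h at 37 °C, 10% CO2 with compound at 10, 2, 0.4, 0.08 and 0.016 μM final. Endogenous MLKL was quantified by western blot (anti-MLKL 3H1), normalized to GAPDH. Percent degradation was taken relative to DMSO control.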

human MLKL (full length) = human MLKL (full length) (Homo sapiens (Human), UniProt Q8NB16); test: KINOMEscan binding assay, human MLKL (full length); conditions: hMLKL, Table 25; read-out: MLKL (KD)
Sequence of human MLKL (full length) (Q8NB16 whole entry): as above
Summary of the method: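 Assay principle: test compound competes with immobilized bead ligand for kinase; kinase retained, then eluted, is counted by qPCR. Conditions were 1% DMSO final with 11 compound concentrations in 3-fold steps, 30,000 nM top for most. The Hill equation with slope −1 gave Kd.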

endogenous MLKL in MDF = endogenous MLKL in MDF (Mus musculus (Mouse), UniProt Q9D2Y4); test: Degradation assay: endogenous MLKL in MDF (western blot); conditions: MDF cells, 24 h incubation with compound, MLKL adjusted for loading with GAPDH, normalized to DMSO only control, read-out: Degradation of endogenous MLKL in MDF (DC50 cell-based assay)
Sequence of endogenous MLKL in MDF (Q9D2Y4 whole entry): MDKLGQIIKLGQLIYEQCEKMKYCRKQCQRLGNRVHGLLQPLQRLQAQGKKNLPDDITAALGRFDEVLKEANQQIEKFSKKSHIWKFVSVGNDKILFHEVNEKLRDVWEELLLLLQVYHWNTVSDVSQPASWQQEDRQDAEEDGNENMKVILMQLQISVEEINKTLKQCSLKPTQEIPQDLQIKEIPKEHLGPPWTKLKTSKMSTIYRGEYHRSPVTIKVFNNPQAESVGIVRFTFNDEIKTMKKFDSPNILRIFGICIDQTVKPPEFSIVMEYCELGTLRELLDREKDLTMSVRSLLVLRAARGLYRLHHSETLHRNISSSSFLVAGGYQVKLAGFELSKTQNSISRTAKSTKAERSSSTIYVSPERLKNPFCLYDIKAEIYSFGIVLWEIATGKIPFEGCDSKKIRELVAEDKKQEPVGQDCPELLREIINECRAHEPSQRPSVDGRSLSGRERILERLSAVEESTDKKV
Summary of the method: as §4

Cc1ncsc1-c1ccc(CNC(=O)[C@@H]2C[C@@H](O)CN2C(=O)[C@@H](NC(=O)CCN2CC(n3cc(-c4cnc(N)c5c(-c6ccc(NS(=O)(=O)C(F)F)c(O[C@@H](C)c7ccc(F)cc7)c6)nn(C)c45)cn3)C2)C(C)(C)C)cc1 [Compound 1010, (2S,4R)-1-[(2S)-2-{3-[3-(4-{4-amino-3-[4-(difluoromethanesulfonamido)-3-[(1S)-1-(4-fluorophenyl)ethoxy]phenyl]-1-methyl-1H-pyrazolo[4,3-c]pyridin-7-yl}-1H-pyrazol-1-yl)azetidin-1-yl]propanamido}-3,3-dimethylbutanoyl]-4-hydroxy-N-{[4-(4-methyl-1,3-thiazol-5-yl)phenyl]methyl}pyrrolidine-2-carboxamide]
IC50 (U937 cells): > 10 µM | IC50 [1]: 1 to 10 µM | DC50 (endogenous MLKL in U937): 1 to 10 µM | Kd (human MLKL (full length)): < 0.01 µM

CCS(=O)(=O)Nc1ccc(-c2n[nH]c3c(-c4cnn(CCCCCCC(=O)N[C@H](C(=O)N5C[C@H](O)C[C@H]5C(=O)NCc5ccc(-c6scnc6C)cc5)C(C)(C)C)c4)cnc(N)c23)cc1OCc1ccc(F)cc1 [Compound 1003, (2S,4R)-1-[(2S)-2-{7-[4-(4-amino-3-{4-ethanesulfonamido-3-[(4-fluorophenyl)methoxy]phenyl}-1H-pyrazolo[4,3-c]pyridin-7-yl)-1H-pyrazol-1-yl]heptanamido}-3,3-dimethylbutanoyl]-4-hydroxy-N-{[4-(4-methyl-1,3-thiazol-5-yl)phenyl]methyl}pyrrolidine-2-carboxamide]
IC50 (U937 cells): > 10 µM | IC50 [1]: > 10 µM | DC50 (endogenous MLKL in U937): 1 to 10 µM | Kd (human MLKL (full length)): < 0.01 µM

Cc1ncsc1-c1ccc(CNC(=O)[C@@H]2C[C@@H](O)CN2C(=O)[C@@H](NC(=O)CN2CCC(C#Cc3cnc(N)c4c(-c5ccc(NS(=O)(=O)C(F)F)c(O[C@@H](C)c6ccc(F)cc6)c5)nn(C)c34)CC2)C(C)(C)C)cc1 [Compound 1023, (2S,4R)-1-[(2S)-2-{2-[4-(2-{4-amino-3-[4-(difluoromethanesulfonamido)-3-[(1S)-1-(4-fluorophenyl)ethoxy]phenyl]-1-methyl-1H-pyrazolo[4,3-c]pyridin-7-yl}ethynyl)piperidin-1-yl]acetamido}-3,3-dimethylbutanoyl]-4-hydroxy-N-{[4-(4-methyl-1,3-thiazol-5-yl)phenyl]methyl} pyrrolidine-2-carboxamide]
IC50 (U937 cells): > 10 µM | IC50 [1]: < 1 µM | DC50 (endogenous MLKL in MDF): 1 to 10 µM

Cc1ncsc1-c1ccc(CNC(=O)[C@@H]2C[C@@H](O)CN2C(=O)[C@@H](NC(=O)CCN2CCC(n3cc(-c4cnc(N)c5c(-c6ccc(NS(=O)(=O)C(F)F)c(O[C@@H](C)c7ccc(F)cc7)c6)nn(C)c45)cn3)C2)C(C)(C)C)cc1 (stereo partly drawn) [Compound 1012, (2S,4R)-1-[(2S)-2-{3-[3-(4-{4-amino-3-[4-(difluoromethanesulfonamido)-3-[(1S)-1-(4-fluorophenyl)ethoxy]phenyl]-1-methyl-1H-pyrazolo[4,3-c]pyridin-7-yl}-1H-pyrazol-1-yl)pyrrolidin-1-yl]propanamido}-3,3-dimethylbutanoyl]-4-hydroxy-N-{[4-(4-methyl-1,3-thiazol-5-yl)phenyl]methyl}pyrrolidine-2-carboxamide]
IC50 (U937 cells): > 10 µM | IC50 [1]: 1 to 10 µM | DC50 (endogenous MLKL in U937): 1 to 10 µM | Kd (human MLKL (full length)): < 0.01 µM

Cc1ncsc1-c1ccc(CNC(=O)[C@@H]2C[C@@H](O)CN2C(=O)[C@@H](NC(=O)CCN2CCC(n3cc(-c4cnc(N)c5c(-c6ccc(NS(=O)(=O)C(F)F)c(O[C@@H](C)c7ccc(F)cc7)c6)nn(C)c45)cn3)CC2)C(C)(C)C)cc1 [Compound 1017, (2S,4R)-1-[(2S)-2-{3-[4-(4-{4-amino-3-[4-(difluoromethanesulfonamido)-3-[(1S)-1-(4-fluorophenyl)ethoxy]phenyl]-1-methyl-1H-pyrazolo[4,3-c]pyridin-7-yl}-1H-pyrazol-1-yl)piperidin-1-yl]propanamido}-3,3-dimethylbutanoyl]-4-hydroxy-N-{[4-(4-methyl-1,3-thiazol-5-yl)phenyl]methyl}pyrrolidine-2-carboxamide]
IC50 (U937 cells): > 10 µM | IC50 [1]: 1 to 10 µM | DC50 (endogenous MLKL in U937): 1 to 10 µM | Kd (human MLKL (full length)): < 0.01 µM

Cc1ncsc1-c1ccc(CNC(=O)[C@@H]2C[C@@H](O)CN2C(=O)[C@@H](NC(=O)CN2CCC(n3cc(-c4cnc(N)c5c(-c6ccc(NS(=O)(=O)C(F)F)c(O[C@@H](C)c7ccc(F)cc7)c6)nn(C)c45)cn3)C2)C(C)(C)C)cc1 (stereo partly drawn) [Compound 1011, (2S,4R)-1-[(2S)-2-{2-[3-(4-{4-amino-3-[4-(difluoromethanesulfonamido)-3-[(1S)-1-(4-fluorophenyl)ethoxy]phenyl]-1-methyl-1H-pyrazolo[4,3-c]pyridin-7-yl}-1H-pyrazol-1-yl)pyrrolidin-1-yl]acetamido}-3,3-dimethylbutanoyl]-4-hydroxy-N-{[4-(4-methyl-1,3-thiazol-5-yl)phenyl]methyl}pyrrolidine-2-carboxamide]
IC50 (U937 cells): > 10 µM | IC50 [1]: 1 to 10 µM | DC50 (endogenous MLKL in U937): 1 to 10 µM

CCS(=O)(=O)Nc1ccc(-c2n[nH]c3c(-c4cnn(CCOCCOCC(=O)N[C@H](C(=O)N5C[C@H](O)C[C@H]5C(=O)NCc5ccc(-c6scnc6C)cc5)C(C)(C)C)c4)cnc(N)c23)cc1OCc1ccc(F)cc1 [Compound 1005, (2S,4R)-1-[(2S)-2-[2-(2-{2-[4-(4-amino-3-{4-ethanesulfonamido-3-[(4-fluorophenyl)methoxy]phenyl}-1H-pyrazolo[4,3-c]pyridin-7-yl)-1H-pyrazol-1-yl]ethoxy}ethoxy)acetamido]-3,3-dimethylbutanoyl]-4-hydroxy-N-{[4-(4-methyl-1,3-thiazol-5-yl)phenyl]methyl}pyrrolidine-2-carboxamide]
IC50 (U937 cells): > 10 µM | IC50 [1]: 1 to 10 µM | DC50 (endogenous MLKL in U937): 1 to 10 µM | Kd (human MLKL (full length)): < 0.01 µM

Cc1ncsc1-c1ccc(CNC(=O)[C@@H]2C[C@@H](O)CN2C(=O)[C@@H](NC(=O)COCCOCCOCCn2cc(-c3cnc(N)c4c(-c5ccc(NS(=O)(=O)C(F)F)c(O[C@@H](C)c6ccc(F)cc6)c5)nn(C)c34)cn2)C(C)(C)C)cc1 [Compound 1009, (2S,4R)-1-[(2S)-2-[2-(2-{2-[2-(4-{4-amino-3-[4-(difluoromethanesulfonamido)-3-[(1S)-1-(4-fluorophenyl)ethoxy]phenyl]-1-methyl-1H-pyrazolo[4,3-c]pyridin-7-yl}-1H-pyrazol-1-yl)ethoxy]ethoxy}ethoxy)acetamido]-3,3-dimethylbutanoyl]-4-hydroxy-N-{[4-(4-methyl-1,3-thiazol-5-yl)phenyl]methyl}pyrrolidine-2-carboxamide]
IC50 (U937 cells): 1 to 10 µM | IC50 [1]: < 1 µM | DC50 (endogenous MLKL in U937): 1 to 10 µM | Kd (human MLKL (full length)): < 0.01 µM
